Here are results for two molecules from patent US4004028A, “Phenoxypropanolamines” (SmithKline Corporation, priority 1975, dated 1977).

The subject of assay [1] is guinea pig tracheal chain preparations. The experiment in a line: effect on spontaneous tone of guinea pig tracheal chain (ring) preparations, β-stimulant direct relaxant effect on airway smooth muscle. The class given is cell-based. As to conditions: for absolute separation ratio: atrial ED25 versus tracheal ED50, in vitro guinea pig preparations. The text has this: (§1) Two in vitro test systems used for determining selective β-stimulant activity are: (1) effect on spontaneous tone of guinea pig tracheal chain preparations as a measure of β-stimulant (direct relaxant) effect on airway smooth muscle, and (2) effect on rate of spontaneously beating right atria of the guinea pig as a measure of β-stimulant effect on cardiac muscle.

Assay [2] concerns guinea pig right atria. Description: effect on rate of spontaneously beating right atria of the guinea pig, β-stimulant effect on cardiac muscle. Type of assay: cell-based. The following applies: Cavia porcellus, in vitro, read-out: ED25, increasing the rate of contraction of guinea pig right atria.
Excerpt: as §1

Values after ≈ are worked out from the molar mass of the structure shown.

In the case of `CC(C)NCC(O)c1ccc(O)c(O)c1` (stereo not drawn) [d, l-isoproterenol, reference compound], the absolute separation ratio in assay [1] was 0.5.

For `CC(C)(C)NCC(O)COc1ccc(O)c(NS(C)(=O)=O)c1` (centres unmarked) [3-(4-hydroxy-3-methanesulfonamidophenoxy)-1-(tert-butylamino)-2-propanol], the EC25 in assay [2] is 0.409 µg/mL (≈ 1.23 µM). For the same molecule, in assay [1] (Cavia porcellus, in vitro, guinea pig tracheal ring preparation, read-out: ED50, relaxes the spontaneous tone of guinea pig tracheal ring preparation), the EC50 was found to be 0.00219 µg/mL (≈ 0.00659 µM). Also, the absolute separation ratio in assay [1] amounted to 186. Besides, in assay [1] (relative to d, l-isoproterenol (absolute separation ratio = 0.5)), the “fold improvement of absolute separation ratio compared to d, l-isoproterenol” value amounted to 372 fold.
